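Five compound concentrations were applied to cells in 96-well plates for 48 hours; endpoints were derived by simple linear interpolation of the resulting dose-response curve. TGI: total growth inhibition.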
Tests used:
Assay in all cases: NCI anticancer screen, dose series, 48 h
SW-620 colon = tested on: SW-620 colon
NCI-H522 lung = tested on: NCI-H522 lung
RPMI-8226 leukemia = tested on: RPMI-8226 leukemia
M14 melanoma = tested on: M14 melanoma
BT-549 breast = tested on: BT-549 breast
SNB-19 CNS = tested on: SNB-19 CNS
MDA-MB-435 = tested on: MDA-MB-435
OVCAR-8 ovarian = tested on: OVCAR-8 ovarian
ACHN renal = tested on: ACHN renal
KM12 colon = tested on: KM12 colon
SF-295 CNS = tested on: SF-295 CNS
UO-31 renal = tested on: UO-31 renal
COLO 205 colon = tested on: COLO 205 colon
PC-3 prostate = tested on: PC-3 prostate
MCF7 breast = tested on: MCF7 breast
NCI-H23 lung = tested on: NCI-H23 lung
IGROV1 ovarian = tested on: IGROV1 ovarian
UACC-257 melanoma = tested on: UACC-257 melanoma
OVCAR-3 ovarian = tested on: OVCAR-3 ovarian
UACC-62 melanoma = tested on: UACC-62 melanoma
HCT-116 colon = tested on: HCT-116 colon
HOP-62 NSCLC = tested on: HOP-62 NSCLC
HOP-92 NSCLC = tested on: HOP-92 NSCLC
SK-MEL-2 melanoma = tested on: SK-MEL-2 melanoma
786-0 renal = tested on: 786-0 renal
HCC-2998 colon = tested on: HCC-2998 colon
SF-268 CNS = tested on: SF-268 CNS
T-47D breast = tested on: T-47D breast
TK-10 renal = tested on: TK-10 renal
OVCAR-4 ovarian = tested on: OVCAR-4 ovarian
U251 CNS = tested on: U251 CNS
SNB-75 CNS = tested on: SNB-75 CNS
EKVX NSCLC = tested on: EKVX NSCLC
MDA-MB-231 breast = tested on: MDA-MB-231 breast
LOX IMVI melanoma = tested on: LOX IMVI melanoma
SK-MEL-5 melanoma = tested on: SK-MEL-5 melanoma
OVCAR-5 ovarian = tested on: OVCAR-5 ovarian
NCI-H460 lung = tested on: NCI-H460 lung
SF-539 CNS = tested on: SF-539 CNS
CAKI-1 renal = tested on: CAKI-1 renal
MALME-3M melanoma = tested on: MALME-3M melanoma
A549 NSCLC = tested on: A549 NSCLC
MDA-N = tested on: MDA-N
A498 renal = tested on: A498 renal
DU-145 prostate = tested on: DU-145 prostate
HT29 colon = tested on: HT29 colon
SK-MEL-28 melanoma = tested on: SK-MEL-28 melanoma
SN12C renal = tested on: SN12C renal
CCRF-CEM leukemia = tested on: CCRF-CEM leukemia
HS 578T breast = tested on: HS 578T breast
HL-60(TB) leukemia = tested on: HL-60(TB) leukemia
MOLT-4 leukemia = tested on: MOLT-4 leukemia
HCT-15 colon = tested on: HCT-15 colon
SR leukemia = tested on: SR leukemia
K-562 leukemia = tested on: K-562 leukemia
NCI-H226 lung = tested on: NCI-H226 lung
SK-OV-3 ovarian = tested on: SK-OV-3 ovarian
NCI/ADR-RES ovarian = tested on: NCI/ADR-RES ovarian
RXF 393 renal = tested on: RXF 393 renal

## C=C(C)C12OC1[C@@]1(C)C(=CC2=O)CCC(O)[C@@H]1C (stereo not given in full)
SW-620 colon
  TGI: > 100 µM
NCI-H522 lung
  TGI: 5.91 µM
RPMI-8226 leukemia
  TGI: 24 µM
M14 melanoma
  TGI: 18.1 µM
BT-549 breast
  TGI: 50.8 µM
SNB-19 CNS
  TGI: 33.2 µM
MDA-MB-435
  TGI: 21.1 µM
OVCAR-8 ovarian
  TGI: 8.24 µM
ACHN renal
  TGI: 2.42 µM
KM12 colon
  TGI: 16.7 µM
SF-295 CNS
  TGI: > 100 µM
UO-31 renal
  TGI: 41.9 µM
COLO 205 colon
  TGI: 6.5 µM
PC-3 prostate
  TGI: 27.8 µM
MCF7 breast
  TGI: > 100 µM
NCI-H23 lung
  TGI: 16.2 µM
IGROV1 ovarian
  TGI: 13.3 µM
UACC-257 melanoma
  TGI: > 100 µM
OVCAR-3 ovarian
  TGI: > 100 µM
UACC-62 melanoma
  TGI: 75.4 µM
HCT-116 colon
  TGI: 14.2 µM
HOP-62 NSCLC
  TGI: 11.7 µM
HOP-92 NSCLC
  TGI: 93.9 µM
SK-MEL-2 melanoma
  TGI: 20.1 µM
786-0 renal
  TGI: 13.4 µM
HCC-2998 colon
  TGI: 17.6 µM
SF-268 CNS
  TGI: 14.7 µM
T-47D breast
  TGI: 78.4 µM
TK-10 renal
  TGI: > 100 µM
OVCAR-4 ovarian
  TGI: > 100 µM
U251 CNS
  TGI: 14.4 µM
SNB-75 CNS
  TGI: 38.8 µM
EKVX NSCLC
  TGI: 6.69 µM
MDA-MB-231 breast
  TGI: 7.11 µM
LOX IMVI melanoma
  TGI: 16.6 µM
SK-MEL-5 melanoma
  TGI: 36.7 µM
OVCAR-5 ovarian
  TGI: > 100 µM
NCI-H460 lung
  TGI: 11.4 µM
SF-539 CNS
  TGI: 15.8 µM
CAKI-1 renal
  TGI: 3 µM
MALME-3M melanoma
  TGI: 25.1 µM
A549 NSCLC
  TGI: 20.3 µM
MDA-N
  TGI: 17.3 µM
A498 renal
  TGI: 62.5 µM
DU-145 prostate
  TGI: 33.1 µM
HT29 colon
  TGI: 3.89 µM
SK-MEL-28 melanoma
  TGI: > 100 µM
SN12C renal
  TGI: 11.5 µM
CCRF-CEM leukemia
  TGI: 8.82 µM
HS 578T breast
  TGI: 9.26 µM
HL-60(TB) leukemia
  TGI: 4.26 µM
MOLT-4 leukemia
  TGI: 3.66 µM
HCT-15 colon
  TGI: > 100 µM
SR leukemia
  TGI: 11.3 µM

## N#CSC#CCCC#CSC#N
SW-620 colon
  TGI: 38.7 µM
NCI-H522 lung
  TGI: 13.6 µM
K-562 leukemia
  TGI: > 100 µM
M14 melanoma
  TGI: 26.4 µM
BT-549 breast
  TGI: 47.7 µM
SNB-19 CNS
  TGI: 29 µM
MDA-MB-435
  TGI: 56.2 µM
OVCAR-8 ovarian
  TGI: 60.7 µM
ACHN renal
  TGI: 31.4 µM
KM12 colon
  TGI: 34.9 µM
SF-295 CNS
  TGI: 32.7 µM
UO-31 renal
  TGI: 33.5 µM
COLO 205 colon
  TGI: 26.7 µM
PC-3 prostate
  TGI: 48.3 µM
MCF7 breast
  TGI: 48.2 µM
NCI-H23 lung
  TGI: 42.1 µM
IGROV1 ovarian
  TGI: 45.1 µM
UACC-257 melanoma
  TGI: 32.2 µM
OVCAR-3 ovarian
  TGI: 51.8 µM
UACC-62 melanoma
  TGI: 31.8 µM
HCT-116 colon
  TGI: 48.5 µM
HOP-62 NSCLC
  TGI: 33.7 µM
HOP-92 NSCLC
  TGI: 39.5 µM
SK-MEL-2 melanoma
  TGI: 43.1 µM
786-0 renal
  TGI: 40.4 µM
HCC-2998 colon
  TGI: 34.3 µM
NCI-H226 lung
  TGI: 58.2 µM
SF-268 CNS
  TGI: > 100 µM
TK-10 renal
  TGI: 33.1 µM
OVCAR-4 ovarian
  TGI: 58.5 µM
U251 CNS
  TGI: 30.5 µM
SK-OV-3 ovarian
  TGI: 29.7 µM
EKVX NSCLC
  TGI: 41.5 µM
MDA-MB-231 breast
  TGI: 42 µM
LOX IMVI melanoma
  TGI: 40.5 µM
SK-MEL-5 melanoma
  TGI: 34.8 µM
OVCAR-5 ovarian
  TGI: 40.3 µM
NCI-H460 lung
  TGI: 48.4 µM
SF-539 CNS
  TGI: 41.2 µM
CAKI-1 renal
  TGI: 33.7 µM
MALME-3M melanoma
  TGI: 34.3 µM
A549 NSCLC
  TGI: 42 µM
NCI/ADR-RES ovarian
  TGI: 74.9 µM
MDA-N
  TGI: 34.8 µM
A498 renal
  TGI: 37.7 µM
DU-145 prostate
  TGI: 28.3 µM
HT29 colon
  TGI: 45.8 µM
SK-MEL-28 melanoma
  TGI: 82 µM
SN12C renal
  TGI: 31.9 µM
CCRF-CEM leukemia
  TGI: > 100 µM
HS 578T breast
  TGI: 76.2 µM
HL-60(TB) leukemia
  TGI: > 100 µM
MOLT-4 leukemia
  TGI: 6.92 µM
RXF 393 renal
  TGI: 35.7 µM
HCT-15 colon
  TGI: 34.8 µM
SR leukemia
  TGI: > 100 µM

— PubChem BioAssay (NCI)
